Experimental data reported in PMC3286601 (Biochemistry, 2012).
Where two headings read alike, the source gives them in different places.

Columns and labels:
[1] = molecular target: T1, wild-type Pseudomonas sp. strain CBS3 4-HB-CoA thioesterase (Pseudomonas sp., UniProt P56653); test: Steady-state product inhibition of thioesterase-catalyzed hydrolysis of 4-HB-CoA; type: biochemical
T1 sequence (P56653 1-141): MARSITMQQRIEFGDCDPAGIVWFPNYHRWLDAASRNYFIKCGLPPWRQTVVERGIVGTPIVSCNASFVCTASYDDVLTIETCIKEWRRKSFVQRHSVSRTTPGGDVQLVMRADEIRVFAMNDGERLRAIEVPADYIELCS

[2] = molecular target: T1, wild-type Pseudomonas sp. strain CBS3 4-HB-CoA thioesterase; test: Steady-state kinetic constants; type: biochemical; details: substrate hydrolysis, pH 7.5, 25 °C
[3] = molecular target: T1, wild-type Pseudomonas sp. strain CBS3 4-HB-CoA thioesterase; test: kcat pH rate profiles in H2O and D2O, solvent kinetic isotope effect on kcat; type: biochemical; details: for C1 (pH independent kcat plateau) / C2 (pH independent kcat plateau) / first break in kcat pH profile / second break in kcat pH profile: fit to equation 4
[4] = molecular target: T1, wild-type Pseudomonas sp. strain CBS3 4-HB-CoA thioesterase; test: Ligand binding to wild-type thioesterase by stopped-flow fluorescence quenching; details: for kobs (apparent pseudo-first order binding rate constant): 0.54 µM thioesterase; for koff: read-out: koff (dissociation rate constant); for kon: read-out: kon (association rate constant)
[5] = molecular target: D17N thioesterase; details: inert D17N thioesterase complex, steady-state fluorescence quenching; ref [5]; cited from earlier work
[6] = molecular target: T1, wild-type Pseudomonas sp. strain CBS3 4-HB-CoA thioesterase; type: biochemical
[7] = molecular target: T1, wild-type Pseudomonas sp. strain CBS3 4-HB-CoA thioesterase; type: biochemical; remark: listed apart in the source
[8] = molecular target: T1, wild-type Pseudomonas sp. strain CBS3 4-HB-CoA thioesterase; test: Steady-state multiple-turnover time courses; type: biochemical
[9] = conjugate acid of the CoA thiolate anion leaving group; source not stated; cited from earlier work

Question: Which Ki [1] does the source give for `O=C(O)c1ccc(O)cc1` [4-HB, 4-hydroxybenzoate] here?
Answer: 1200 ± 200 µM

Question: For `CC(C)(COP(=O)(O)OP(=O)(O)OC[C@H]1O[C@@H](n2cnc3c(N)ncnc32)[C@H](O)[C@@H]1OP(=O)(O)O)[C@@H](O)C(=O)NCCC(=O)NCCSC(=O)c1ccc(O)cc1` [4-HB-CoA, 4-hydroxybenzoyl-CoA], which steady-state kcat [2] is on record?
Answer: 18 s⁻¹

Question: And the “pH independent isotope effect from ratio of C1 values” ([3]; H2O/D2O)?
Answer: 3.8

Question: And the “pH independent isotope effect from ratio of C2 values” ([3]; H2O/D2O)?
Answer: 3.7

Question: And the “C1 (pH independent kcat plateau)” value ([3]; buffered D2O)?
Answer: 1.3 ± 0.2

Question: And the “C2 (pH independent kcat plateau)” value ([3]; buffered D2O)?
Answer: 15 ± 1

Question: What about the “first break in kcat pH profile” value ([3]; buffered D2O) of the same compound?
Answer: 5.1 ± 0.1

Question: And the “second break in kcat pH profile” value ([3]; buffered D2O)?
Answer: 8.0 ± 0.1

Question: What about the “C1 (pH independent kcat plateau)” value ([3]; buffered H2O) of the same compound?
Answer: 5.0 ± 0.1

Question: And the “C2 (pH independent kcat plateau)” value ([3]; buffered H2O)?
Answer: 55 ± 4

Question: And the “first break in kcat pH profile” value ([3]; buffered H2O)?
Answer: 5.15 ± 0.09

Question: And the “second break in kcat pH profile” value ([3]; buffered H2O)?
Answer: 7.70 ± 0.08

Question: What about the “D2O solvent kinetic isotope effect (SKIE) on kcat” value ([3]; pH independent) of the same compound?
Answer: 3.7–3.8

Question: And the Kd [4]?
Answer: 0.2 µM

Question: And the “kobs (apparent pseudo-first order binding rate constant)” value ([4]; 5.0 µM 4-HB-CoA (b38 prints 4.0 µM), pH 7.5, 25 °C)?
Answer: 280 ± 30 s⁻¹

Question: And the koff [4]?
Answer: 13 ± 5 s⁻¹

Question: What about the kon [4] of the same compound?
Answer: 6.5e+07 ± 2e+06 M⁻¹ s⁻¹

Question: And the “substrate-binding rate k1” value ([4]; summary value in Conclusions)?
Answer: ~ 70 µM^−1s^−1

Question: What about the Kd [5] of the same compound?
Answer: 0.14 µM

Question: Which Kd [4] does the source give for `CC(C)(COP(=O)(O)OP(=O)(O)OC[C@H]1O[C@@H](n2cnc3c(N)ncnc32)[C@H](O)[C@@H]1OP(=O)(O)O)[C@@H](O)C(=O)NCCC(=O)NCCSCC(=O)c1ccc(O)cc1` [4-HP-CoA, 4-hydroxyphenacyl-CoA] here?
Answer: 0.33 µM

Question: And the “kobs (apparent pseudo-first order binding rate constant)” value ([4]; 5.3 µM 4-HP-CoA, 50 mM K+HEPES pH 7.5, 25 °C)?
Answer: 350 ± 4 s⁻¹

Question: And the koff [4]?
Answer: 20 ± 5 s⁻¹

Question: What about the kon [4] of the same compound?
Answer: 5.9e+07 ± 1e+06 M⁻¹ s⁻¹

Question: Which results are given for `CC(C)(COP(=O)(O)OP(=O)(O)OC[C@H]1O[C@@H](n2cnc3c(N)ncnc32)[C@H](O)[C@@H]1OP(=O)(O)O)[C@@H](O)C(=O)NCCC(=O)NCCS` [CoA, coenzyme A]?
Answer: Ki [1]: 250 ± 70 µM; Kii (intercept inhibition constant) ([1]; noncompetitive inhibition of 4-HB-CoA hydrolysis, pH 7.5, 25 °C): 900 ± 300 µM; Kd [6]: 300 µM; Kd [7]: 300 µM; Kd [8]: 300 µM; pKa of the conjugate acid [9]: 9.7
